According to the supplement of paper PMC10307832:

Tests used:
Assay in all cases: relative viability (nuclei count vs DMSO), 5 days (fraction); higher = more cells survive
[1] = test system: LCLC-103H
Procedure, shortened: (§1)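 A single step with final 0.05% Triton X-100, 1% formaldehyde and 1 ug/ml Hoechst fixed the cells and stained nuclei 5 days after treatment. Lung cancer cell lines in 1536-well plates had been treated by pin tool the day after seeding with one drug alone or a fixed anchor-drug dose plus five library-drug doses (not always all listed) in √10 steps, and nuclei were counted on 4× images. Relative viability is the ratio of nuclei in treated wells to nuclei in vehicle wells, taken as the median of duplicate plates.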

[2] = test system: LOU-NH91
Procedure, shortened: as §1

[3] = test system: NCI-H596
Procedure, shortened: as §1

[4] = test system: NCI-H2347
Procedure, shortened: as §1

[5] = test system: NCI-H650
Procedure, shortened: as §1

[6] = test system: HCC-44
Procedure, shortened: as §1

[7] = test system: NCI-H838
Procedure, shortened: as §1

[8] = test system: NCI-H3122
Procedure, shortened: as §1

[9] = test system: NCI-H647
Procedure, shortened: as §1

[10] = test system: NCI-H2023
Procedure, shortened: as §1

[11] = test system: EMC-BAC-2
Procedure, shortened: as §1

[12] = test system: NCI-H2087
Procedure, shortened: as §1

[13] = test system: 201T
Procedure, shortened: as §1

[14] = test system: BEN
Procedure, shortened: as §1

[15] = test system: NCI-H522
Procedure, shortened: as §1

[16] = test system: HARA
Procedure, shortened: as §1

[17] = test system: NCI-H1395
Procedure, shortened: as §1

[18] = test system: NCI-H727
Procedure, shortened: as §1

[19] = test system: NCI-H2126
Procedure, shortened: as §1

[20] = test system: NCI-H1993
Procedure, shortened: as §1

[21] = test system: NCI-H23
Procedure, shortened: as §1

[22] = test system: NCI-H441
Procedure, shortened: as §1

CC(=O)O[C@@]12CO[C@@H]1C[C@H](O)[C@@]1(C)C(=O)[C@H](O)C3=C(C)[C@@H](OC(=O)[C@H](O)[C@@H](NC(=O)OC(C)(C)C)c4ccccc4)C[C@@](O)([C@@H](OC(=O)c4ccccc4)[C@H]21)C3(C)C [Docetaxel] + O=C(c1cc(Cc2n[nH]c(=O)c3ccccc23)ccc1F)N1CCN(C(=O)C2CC2)CC1 [Olaparib] (partner 8 µM)
relative viability ([1]; first compound 0.0002 µM): 0.744
relative viability ([1]; first compound 0.000632 µM): 0.803
relative viability ([1]; first compound 0.002 µM): 0.748
relative viability ([1]; first compound 0.006325 µM): 0.643
relative viability ([1]; first compound 0.02 µM): 0.481
relative viability ([2]; first compound 0.0002 µM): 0.915
relative viability ([2]; first compound 0.000632 µM): 0.839
relative viability ([2]; first compound 0.002 µM): 0.567
relative viability ([2]; first compound 0.006325 µM): 0.396
relative viability ([2]; first compound 0.02 µM): 0.315
relative viability ([3]; first compound 0.0002 µM): 0.685
relative viability ([3]; first compound 0.000632 µM): 0.83
relative viability ([3]; first compound 0.002 µM): 0.638
relative viability ([3]; first compound 0.006325 µM): 0.418
relative viability ([3]; first compound 0.02 µM): 0.338
relative viability ([4]; first compound 0.0002 µM): 0.613
relative viability ([4]; first compound 0.000632 µM): 0.566
relative viability ([4]; first compound 0.002 µM): 0.557
relative viability ([4]; first compound 0.006325 µM): 0.505
relative viability ([4]; first compound 0.02 µM): 0.388
relative viability ([5]; first compound 0.0002 µM): 0.361
relative viability ([5]; first compound 0.000632 µM): 0.292
relative viability ([5]; first compound 0.002 µM): 0.192
relative viability ([5]; first compound 0.006325 µM): 0.189
relative viability ([5]; first compound 0.02 µM): 0.148
relative viability ([6]; first compound 0.0002 µM): 0.978
relative viability ([6]; first compound 0.000632 µM): 0.954
relative viability ([6]; first compound 0.002 µM): 0.908
relative viability ([6]; first compound 0.006325 µM): 0.682
relative viability ([6]; first compound 0.02 µM): 0.616
relative viability ([7]; first compound 0.0002 µM): 0.716
relative viability ([7]; first compound 0.000632 µM): 0.368
relative viability ([7]; first compound 0.002 µM): 0.268
relative viability ([7]; first compound 0.006325 µM): 0.137
relative viability ([7]; first compound 0.02 µM): 0.106
relative viability ([8]; first compound 0.0002 µM): 0.658
relative viability ([8]; first compound 0.000632 µM): 0.623
relative viability ([8]; first compound 0.002 µM): 0.521
relative viability ([8]; first compound 0.006325 µM): 0.202
relative viability ([8]; first compound 0.02 µM): 0.129
relative viability ([9]; first compound 0.0002 µM): 0.449
relative viability ([9]; first compound 0.000632 µM): 0.132
relative viability ([9]; first compound 0.002 µM): 0.0799
relative viability ([9]; first compound 0.006325 µM): 0.0764
relative viability ([9]; first compound 0.02 µM): 0.0432
relative viability ([10]; first compound 0.0002 µM): 0.437
relative viability ([10]; first compound 0.000632 µM): 0.313
relative viability ([10]; first compound 0.002 µM): 0.114
relative viability ([10]; first compound 0.006325 µM): 0.114
relative viability ([10]; first compound 0.02 µM): 0.0533
relative viability ([11]; first compound 0.0002 µM): 0.492
relative viability ([11]; first compound 0.000632 µM): 0.47
relative viability ([11]; first compound 0.002 µM): 0.364
relative viability ([11]; first compound 0.006325 µM): 0.318
relative viability ([11]; first compound 0.02 µM): 0.237
relative viability ([12]; first compound 0.0002 µM): 0.586
relative viability ([12]; first compound 0.000632 µM): 0.3
relative viability ([12]; first compound 0.002 µM): 0.243
relative viability ([12]; first compound 0.006325 µM): 0.125
relative viability ([12]; first compound 0.02 µM): 0.0944
relative viability ([13]; first compound 0.0002 µM): 0.821
relative viability ([13]; first compound 0.000632 µM): 0.774
relative viability ([13]; first compound 0.002 µM): 0.637
relative viability ([13]; first compound 0.006325 µM): 0.432
relative viability ([13]; first compound 0.02 µM): 0.267
relative viability ([14]; first compound 0.0002 µM): 1.11
relative viability ([14]; first compound 0.000632 µM): 1.06
relative viability ([14]; first compound 0.002 µM): 0.514
relative viability ([14]; first compound 0.006325 µM): 0.357
relative viability ([14]; first compound 0.02 µM): 0.275
relative viability ([15]; first compound 0.0002 µM): 0.653
relative viability ([15]; first compound 0.000632 µM): 0.459
relative viability ([15]; first compound 0.002 µM): 0.532
relative viability ([15]; first compound 0.006325 µM): 0.499
relative viability ([15]; first compound 0.02 µM): 0.377
relative viability ([16]; first compound 0.0002 µM): 0.858
relative viability ([16]; first compound 0.000632 µM): 0.335
relative viability ([16]; first compound 0.002 µM): 0.161
relative viability ([16]; first compound 0.006325 µM): 0.21
relative viability ([16]; first compound 0.02 µM): 0.0824
relative viability ([17]; first compound 0.0002 µM): 0.502
relative viability ([17]; first compound 0.000632 µM): 0.469
relative viability ([17]; first compound 0.002 µM): 0.481
relative viability ([17]; first compound 0.006325 µM): 0.341
relative viability ([17]; first compound 0.02 µM): 0.339
relative viability ([18]; first compound 0.0002 µM): 0.664
relative viability ([18]; first compound 0.000632 µM): 0.526
relative viability ([18]; first compound 0.002 µM): 0.682
relative viability ([18]; first compound 0.006325 µM): 0.645
relative viability ([18]; first compound 0.02 µM): 0.524
relative viability ([19]; first compound 0.0002 µM): 0.887
relative viability ([19]; first compound 0.000632 µM): 0.861
relative viability ([19]; first compound 0.002 µM): 0.615
relative viability ([19]; first compound 0.006325 µM): 0.348
relative viability ([20]; first compound 0.0002 µM): 0.929
relative viability ([20]; first compound 0.000632 µM): 0.918
relative viability ([20]; first compound 0.002 µM): 0.793
relative viability ([20]; first compound 0.006325 µM): 0.531
relative viability ([20]; first compound 0.02 µM): 0.409
relative viability ([21]; first compound 0.0002 µM): 0.366
relative viability ([21]; first compound 0.002 µM): 0.221
relative viability ([21]; first compound 0.006325 µM): 0.164
relative viability ([21]; first compound 0.02 µM): 0.105
relative viability ([22]; first compound 0.0002 µM): 0.446
relative viability ([22]; first compound 0.000632 µM): 0.324
relative viability ([22]; first compound 0.002 µM): 0.223
relative viability ([22]; first compound 0.006325 µM): 0.158
relative viability ([22]; first compound 0.02 µM): 0.161
